Measurements published in patent US6596512B1 (American Cyanamid Company, priority 1997, dated 2003).

What was measured:
CeDAT1 [1] = biological target: T1, CeDAT1 (Caenorhabditis elegans, UniProt Q03614); experiment: cell-based; set-up: species or system C. elegans
T1 sequence (Q03614 20-615): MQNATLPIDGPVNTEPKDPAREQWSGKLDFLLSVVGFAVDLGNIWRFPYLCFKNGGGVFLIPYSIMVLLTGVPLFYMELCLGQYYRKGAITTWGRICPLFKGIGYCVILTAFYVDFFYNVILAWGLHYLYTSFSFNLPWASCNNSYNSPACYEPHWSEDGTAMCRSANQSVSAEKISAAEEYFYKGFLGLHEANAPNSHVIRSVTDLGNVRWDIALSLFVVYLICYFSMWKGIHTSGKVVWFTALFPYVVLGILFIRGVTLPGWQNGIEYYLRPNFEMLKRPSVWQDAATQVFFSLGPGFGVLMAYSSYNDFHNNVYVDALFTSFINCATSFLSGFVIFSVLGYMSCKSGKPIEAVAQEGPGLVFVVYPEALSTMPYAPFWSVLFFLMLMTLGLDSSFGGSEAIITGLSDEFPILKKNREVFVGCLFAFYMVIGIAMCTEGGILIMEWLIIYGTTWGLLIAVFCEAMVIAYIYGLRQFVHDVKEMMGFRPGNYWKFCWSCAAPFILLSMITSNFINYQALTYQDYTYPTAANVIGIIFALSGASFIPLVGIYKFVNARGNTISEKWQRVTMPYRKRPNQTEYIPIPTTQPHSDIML

CeDAT1 [2] = biological target: T1, CeDAT1; experiment: Saturation kinetics of catecholamine transport in pCeDAT1 transfected HeLa cells; type: cell-based, C. elegans; settings: radiolabeled substrate
CeDAT1 [3] = biological target: T1, CeDAT1; type: cell-based, C. elegans; settings: radiolabeled substrates each at 50 nm, pCeDAT1
[4] = test system: CeDAT2 (Caenorhabditis elegans); type: cell-based, C. elegans; settings: radiolabeled substrates each at 50 nm, pCeDAT2
Sequence of CeDAT2 (Caenorhabditis elegans) (Q03614 whole entry): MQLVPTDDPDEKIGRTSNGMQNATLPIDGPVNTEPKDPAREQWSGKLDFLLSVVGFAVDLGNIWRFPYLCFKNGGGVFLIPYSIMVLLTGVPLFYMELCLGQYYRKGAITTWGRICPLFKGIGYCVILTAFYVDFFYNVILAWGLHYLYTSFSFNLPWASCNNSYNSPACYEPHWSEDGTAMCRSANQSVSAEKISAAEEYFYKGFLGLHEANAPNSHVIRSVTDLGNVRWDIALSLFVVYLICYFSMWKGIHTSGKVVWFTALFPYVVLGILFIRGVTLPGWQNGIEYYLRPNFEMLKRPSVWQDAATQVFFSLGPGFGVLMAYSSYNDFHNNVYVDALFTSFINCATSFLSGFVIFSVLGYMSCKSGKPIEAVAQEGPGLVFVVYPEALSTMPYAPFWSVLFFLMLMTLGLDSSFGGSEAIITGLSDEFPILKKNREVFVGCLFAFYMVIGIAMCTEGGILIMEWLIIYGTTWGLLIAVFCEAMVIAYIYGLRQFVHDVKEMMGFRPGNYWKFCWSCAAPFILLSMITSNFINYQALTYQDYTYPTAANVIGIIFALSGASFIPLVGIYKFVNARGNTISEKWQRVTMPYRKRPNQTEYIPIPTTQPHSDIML

[5] = substrate: NC[C@H](O)c1ccc(O)c(O)c1; experiment: cells, lysate or membranes; settings: 37.0 °C

Molecule: COC(=O)[C@H]1[C@@H](OC(=O)c2ccccc2)C[C@@H]2CC[C@H]1N2C [cocaine]
- Ki (CeDAT1 [1]): 3500 nM

Molecule: CNCCC(Oc1ccccc1OC)c1ccccc1 (stereo not drawn) [nisoxetine]
- Ki (CeDAT1 [1]): 3 nM

Molecule: NCCc1ccc(O)c(O)c1 [DA, Dopamine]
- Ki (CeDAT1 [1]): 146 nM
- Potency as inhibitor of transport relative to L-NE (CeDAT1 [1]; pCeDAT1, HeLa cells, DA versus L-NE): ~10 fold
- Vmax of transport (CeDAT1 [2]): 0.6 pmol/10^6 cells/min
- Extent of transport relative to NE (CeDAT1 [3]): ~2 fold

Molecule: NC[C@H](O)c1ccc(O)c(O)c1 [NE, Norepinephrine]
- Vmax of transport (CeDAT1 [2]): 0.46 pmol/10^6 cells/min

Molecule: OC1(c2ccc(Cl)cc2)c2ccccc2C2=NCCN21 (stereo not drawn) [mazindol]
- Ki (CeDAT1 [1]): 8 nM

Molecule: NCCc1c[nH]c2ccc(O)cc12 [5HT, Serotonin]
- Transport of radiolabeled substrate [4]: transported only at very low levels
- Transport of radiolabeled substrate (CeDAT1 [3]): little or no transport

Molecule: CNC[C@H](O)c1ccc(O)c(O)c1 [Epi]
- Transport of radiolabeled substrate [4]: transported only at very low levels
- Transport of radiolabeled substrate (CeDAT1 [3]): little or no transport

Molecule: NCCc1ccc(O)cc1 [Tyramine]
- Ki (CeDAT1 [1]): 827 nM

Molecule: Fc1ccc(C(OCCN2CCN(CCCc3ccccc3)CC2)c2ccc(F)cc2)cc1 [GBR12909]
- Ki (CeDAT1 [1]): 70 nM

B1: CeDAT1 (Caenorhabditis elegans) (protein)
chain: MQNATLPIDGPVNTEPKDPAREQWSGKLDFLLSVVGFAVDLGNIWRFPYLCFKNGGGVFLIPYSIMVLLTGVPLFYMELCLGQYYRKGAITTWGRICPLFKGIGYCVILTAFYVDFFYNVILAWGLHYLYTSFSFNLPWASCNNSYNSPACYEPHWSEDGTAMCRSANQSVSAEKISAAEEYFYKGFLGLHEANAPNSHVIRSVTDLGNVRWDIALSLFVVYLICYFSMWKGIHTSGKVVWFTALFPYVVLGILFIRGVTLPGWQNGIEYYLRPNFEMLKRPSVWQDAATQVFFSLGPGFGVLMAYSSYNDFHNNVYVDALFTSFINCATSFLSGFVIFSVLGYMSCKSGKPIEAVAQEGPGLVFVVYPEALSTMPYAPFWSVLFFLMLMTLGLDSSFGGSEAIITGLSDEFPILKKNREVFVGCLFAFYMVIGIAMCTEGGILIMEWLIIYGTTWGLLIAVFCEAMVIAYIYGLRQFVHDVKEMMGFRPGNYWKFCWSCAAPFILLSMITSNFINYQALTYQDYTYPTAANVIGIIFALSGASFIPLVGIYKFVNARGNTISEKWQRVTMPYRKRPNQTEYIPIPTTQPHSDIML
- Km [5]: 4.1 µM
